Laboratory results reported in ChEMBL document CHEMBL5346940, “Design, synthesis and biological evaluation of dual Topo II/HDAC inhibitors bearing pyrimido[5,4-b]indole and pyrazolo[3,4-d]pyrimidine motifs” (Eur J Med Chem, 2023).
The source made the active and inactive calls. The calls are words filed in the database; no cut-off is given here.

What was measured:
[1] = system: MGC-803; assay: Antiproliferative activity against human MGC-803 cells assessed as reduction in cell viability measured for 48 hrs by MTT assay; assay type: functional, cell-based; conditions: MGC-803, 48 h
[2] = system: MCF7; assay: Antiproliferative activity against human MCF7 cells assessed as reduction in cell viability measured for 48 hrs by MTT assay; assay type: functional, cell-based; conditions: MCF7, 48 h
[3] = system: U-937; assay: Antiproliferative activity against human U-937 cells assessed as reduction in cell viability measured for 48 hrs by MTT assay; assay type: functional, cell-based; conditions: U-937, 48 h
[4] = system: NIH3T3; assay: Antiproliferative activity against mouse 3T3 cells assessed as reduction in cell viability at 100 uM measured for 48 hrs by MTT assay relative to control; assay type: toxicity, cell-based; conditions: nih3t3, 48 h
[5] = molecular target: T1, DNA topoisomerase 1 (Homo sapiens) (UniProt P11387); assay: Inhibition of human topoisomerase 1 assessed as relaxation of pBR322 plasmid DNA at 100 uM measured after 30 mins by agarose gel electrophoresis analysis
T1 sequence (whole entry): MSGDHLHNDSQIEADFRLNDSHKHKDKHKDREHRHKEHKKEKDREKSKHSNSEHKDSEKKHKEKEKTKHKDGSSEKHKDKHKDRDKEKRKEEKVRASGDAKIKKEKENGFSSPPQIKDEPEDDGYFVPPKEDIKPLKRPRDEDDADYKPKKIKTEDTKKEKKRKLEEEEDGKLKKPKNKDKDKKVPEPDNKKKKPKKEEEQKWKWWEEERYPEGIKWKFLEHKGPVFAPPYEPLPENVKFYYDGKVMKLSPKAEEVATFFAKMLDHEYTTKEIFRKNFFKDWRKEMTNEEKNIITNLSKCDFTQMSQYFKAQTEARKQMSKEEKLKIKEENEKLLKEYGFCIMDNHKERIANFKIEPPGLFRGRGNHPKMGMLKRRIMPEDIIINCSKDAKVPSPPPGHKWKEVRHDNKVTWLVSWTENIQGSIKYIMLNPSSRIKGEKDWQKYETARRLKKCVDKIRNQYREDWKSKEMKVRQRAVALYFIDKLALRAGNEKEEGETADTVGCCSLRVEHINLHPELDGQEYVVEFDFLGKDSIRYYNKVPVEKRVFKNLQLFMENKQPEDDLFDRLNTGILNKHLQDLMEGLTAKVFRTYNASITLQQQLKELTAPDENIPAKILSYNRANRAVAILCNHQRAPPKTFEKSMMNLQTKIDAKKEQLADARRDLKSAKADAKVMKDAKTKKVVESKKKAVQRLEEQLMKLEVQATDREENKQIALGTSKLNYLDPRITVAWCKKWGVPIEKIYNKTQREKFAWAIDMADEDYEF

[6] = molecular target: DNA topoisomerase 2-alpha (Homo sapiens) (UniProt P11388); assay: Inhibition of human topoisomerase 2 assessed as relaxation of pBR322 plasmid DNA at 100 uM measured after 30 mins by ethidium bromide staining based UV transilluminator analysis
Sequence of DNA topoisomerase 2-alpha (Homo sapiens) (P11388 whole entry): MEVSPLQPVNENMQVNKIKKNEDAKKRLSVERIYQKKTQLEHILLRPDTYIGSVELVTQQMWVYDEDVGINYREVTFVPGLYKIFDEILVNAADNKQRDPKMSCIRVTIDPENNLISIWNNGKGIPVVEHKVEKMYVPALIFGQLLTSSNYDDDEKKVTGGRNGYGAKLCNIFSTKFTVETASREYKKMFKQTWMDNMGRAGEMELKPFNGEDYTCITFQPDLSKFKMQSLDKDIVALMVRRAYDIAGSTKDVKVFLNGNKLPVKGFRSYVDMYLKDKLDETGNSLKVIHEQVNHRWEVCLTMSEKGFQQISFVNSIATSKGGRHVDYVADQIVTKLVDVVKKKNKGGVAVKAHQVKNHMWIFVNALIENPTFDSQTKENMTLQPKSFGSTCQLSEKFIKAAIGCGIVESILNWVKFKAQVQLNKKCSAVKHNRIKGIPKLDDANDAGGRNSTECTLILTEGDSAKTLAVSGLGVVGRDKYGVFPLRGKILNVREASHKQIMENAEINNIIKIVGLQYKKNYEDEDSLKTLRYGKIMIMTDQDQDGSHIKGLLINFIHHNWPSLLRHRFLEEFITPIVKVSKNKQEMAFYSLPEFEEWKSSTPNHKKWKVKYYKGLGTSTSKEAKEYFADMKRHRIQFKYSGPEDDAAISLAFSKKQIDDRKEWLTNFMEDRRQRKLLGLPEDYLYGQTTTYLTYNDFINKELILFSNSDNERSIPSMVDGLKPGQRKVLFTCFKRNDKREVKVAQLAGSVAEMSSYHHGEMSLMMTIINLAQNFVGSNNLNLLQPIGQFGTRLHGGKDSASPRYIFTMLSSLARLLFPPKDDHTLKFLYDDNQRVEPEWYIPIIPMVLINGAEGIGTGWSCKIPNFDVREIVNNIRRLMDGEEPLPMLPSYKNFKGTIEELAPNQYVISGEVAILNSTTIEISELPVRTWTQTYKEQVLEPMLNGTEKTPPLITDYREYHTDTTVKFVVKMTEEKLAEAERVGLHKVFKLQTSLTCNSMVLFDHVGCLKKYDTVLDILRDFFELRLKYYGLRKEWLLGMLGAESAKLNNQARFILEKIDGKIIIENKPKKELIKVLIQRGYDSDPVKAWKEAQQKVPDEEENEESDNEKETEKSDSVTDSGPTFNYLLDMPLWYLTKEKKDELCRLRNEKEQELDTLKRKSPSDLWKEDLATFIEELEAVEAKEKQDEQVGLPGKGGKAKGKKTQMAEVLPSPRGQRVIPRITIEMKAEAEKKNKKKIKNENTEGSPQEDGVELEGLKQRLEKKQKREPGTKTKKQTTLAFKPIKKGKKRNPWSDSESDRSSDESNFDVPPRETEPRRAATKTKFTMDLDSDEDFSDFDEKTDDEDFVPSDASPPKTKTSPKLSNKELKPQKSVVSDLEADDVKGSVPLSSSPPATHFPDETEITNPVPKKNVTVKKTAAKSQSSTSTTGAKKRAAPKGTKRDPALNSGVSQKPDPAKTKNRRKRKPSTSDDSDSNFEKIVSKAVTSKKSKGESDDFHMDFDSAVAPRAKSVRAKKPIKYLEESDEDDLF

[7] = system: MCF7; assay: Induction of apoptosis in human MCF7 cells assessed as viable cells at 10 uM incubated for 48 hrs by AnnexinV-FITC/propidium iodide staining based flow cytometry analysis (reference value: 99.2 %); assay type: functional; conditions: read-out: Activity
[8] = system: MCF7; assay: Induction of apoptosis in human MCF7 cells assessed as early apoptotic cells at 10 uM incubated for 48 hrs by AnnexinV-FITC/propidium iodide staining based flow cytometry analysis (reference value: 0.28 %); assay type: functional
[9] = system: MCF7; assay: Induction of apoptosis in human MCF7 cells assessed as late apoptotic cells at 10 uM incubated for 48 hrs by AnnexinV-FITC/propidium iodide staining based flow cytometry analysis (reference value: 0.015 %); assay type: functional
[10] = system: MCF7; assay: Induction of apoptosis in human MCF7 cells assessed as necrotic cells at 10 uM incubated for 48 hrs by AnnexinV-FITC/propidium iodide staining based flow cytometry analysis (reference value: 0.55 %); assay type: functional
[11] = molecular target: Histone deacetylase; assay: Inhibition of HDAC in human HeLa nuclear extract measured after 30 mins by fluorescence based assay; assay type: cell-free
[12] = molecular target: DNA topoisomerase 2-alpha (Homo sapiens) (UniProt P11388); assay: Poison activity at human topoisomerase 2 assessed as stabilization of enzyme-DNA cleavage complex by measuring linear DNA formation at 100 uM incubated for 6 mins by EtBr staining based UV light analysis
[13] = system: MCF7; assay: cells; assay type: functional; conditions: Homo sapiens, time 48 hrs
Description: Inhibition of cell migration in human MCF7 cells assessed as reduction in cell migration at 1 uM measured for 48 hrs by wound healing assay based microscopic analysis (Rvb = 70.25%)

[14] = system: MCF7; assay: cells; assay type: functional; conditions: Homo sapiens, time 48 hrs; remark: listed apart in the source
Description: Inhibition of cell migration in human MCF7 cells assessed as reduction in cell migration at 2.5 uM measured for 48 hrs by wound healing assay based microscopic analysis (Rvb = 70.25%)

IC50 [1]	IC50 [2]	IC50 [3]	inhibition (active/inactive call) [5]	topoisomerase II inhibition (active/inactive) [6]	IC50 [11]	Structure (SMILES)	Activity [4]	viability at 10 µM [7]	Activity [8]	Activity [9]	Activity [10]	Activity [12]	inhibition at 1 µM [13]	inhibition at 2.5 µM [14]
36.6 µM	36.4 µM	44.7 µM	Active			C/C(=N/O)c1ccc(NC(=O)CCCSc2nc3[nH]ncc3c(=O)[nH]2)cc1	38.02%							
> 80 µM	> 80 µM	26.7 µM	Active	Active		O=C(CSc1nc2c([nH]c3ccccc32)c(=O)[nH]1)NO	38.47%							
1.58 µM		1.58 µM				O=C(CCCCCCC(=O)Nc1ccccc1)NO [VORINOSTAT]	14.98%	44.7%	35.2%	19.7%	0.41%			
40 µM	18.9 µM	19.5 µM	Active	Active		O=C(CCCCSc1nc2[nH]ncc2c(=O)[nH]1)NO	24.26%							
31.3 µM	41.2 µM	15 µM	Active			CCn1c(SCC(=O)NO)nc2c([nH]c3ccccc32)c1=O	45.5%							
25.5 µM	35.5 µM	23.3 µM	Active			CCn1c(SC/C=C/C(=O)NO)nc2c([nH]c3ccccc32)c1=O	50.31%							
46.4 µM	34.6 µM	21.8 µM	Active			CCn1c(SCCCCCCC(=O)NO)nc2c([nH]c3ccccc32)c1=O	61.71%							
21.8 µM	37.2 µM	30.3 µM	Active		2.38 µM	O=C(/C=C/c1ccc(CSc2nc3c([nH]c4ccccc43)c(=O)[nH]2)cc1)NO	21.56%							
19.1 µM	22.6 µM	31.8 µM	Active	Active		O=C(CCSc1nc2[nH]ncc2c(=O)[nH]1)NO	48.81%							
48.4 µM	37.2 µM	30.3 µM	Active	Active		CCn1c(SCC(=O)Nc2ccc(/C(C)=N/O)cc2)nc2c([nH]c3ccccc32)c1=O	21.56%							
25.8 µM	15.5 µM	21.6 µM	Active	Active		O=C(CCCCCSc1nc2[nH]ncc2c(=O)[nH]1)NO	20.31%							
33.3 µM	> 80 µM	37.2 µM	Active	Active		C/C(=N\O)c1ccc(NC(=O)CSc2nc3c([nH]c4ccccc43)c(=O)[nH]2)cc1	18.72%							
31.2 µM	> 80 µM	23.5 µM	Active	Active		O=C(CSc1nc2[nH]ncc2c(=O)[nH]1)NO	41.42%							
10.8 µM	29.7 µM	22.9 µM				COc1cc([C@@H]2c3cc4c(cc3[C@@H](O[C@@H]3O[C@@H]5CO[C@@H](C)O[C@H]5[C@H](O)[C@H]3O)[C@H]3COC(=O)[C@H]23)OCO4)cc(OC)c1O [ETOPOSIDE]	21.47%	92.7%	4.41%	2.48%	0.37%	Active	64.7%	47.1%
19.9 µM	25 µM	19.7 µM	Active	Active		O=C(CCCCCCSc1nc2c([nH]c3ccccc32)c(=O)[nH]1)NO	53.49%							
27.5 µM	20.4 µM	21.7 µM	Active			O=C(CCCSc1nc2[nH]ncc2c(=O)[nH]1)NO	32.15%							
36.4 µM	19.6 µM	25.1 µM	Active			CCn1c(SCCCCCCCC(=O)NO)nc2c([nH]c3ccccc32)c1=O	43.12%							
20.4 µM	49.3 µM	21.9 µM	Active	Active		O=C(/C=C/CSc1nc2c([nH]c3ccccc32)c(=O)[nH]1)NO	41.34%							
17.4 µM	> 80 µM	18.1 µM	Active			CCn1c(SCCCC(=O)NO)nc2c([nH]c3ccccc32)c1=O	46.33%							
34.1 µM	41.4 µM	54.2 µM	Active	Active		O=C(CCCSc1nc2c([nH]c3ccccc32)c(=O)[nH]1)NO	38.06%							
26 µM	25.7 µM	19.6 µM	Active			CCn1c(SCCCCCC(=O)NO)nc2c([nH]c3ccccc32)c1=O	43.13%							
42.5 µM	46.4 µM	31.2 µM	Active			C/C(=N\O)c1ccc(NC(=O)CSc2nc3[nH]ncc3c(=O)[nH]2)cc1	41.36%							
43.5 µM	42.7 µM	18.2 µM	Active			CCn1c(SCCC(=O)NO)nc2c([nH]c3ccccc32)c1=O	53.79%							
24.8 µM	59.6 µM	28 µM	Active	Active		O=C(CCSc1nc2c([nH]c3ccccc32)c(=O)[nH]1)NO	21.73%							
15.8 µM	21.5 µM	47.7 µM	Active	Active		O=C(/C=C/c1ccc(CSc2nc3[nH]ncc3c(=O)[nH]2)cc1)NO	39.04%							
27.6 µM	28.6 µM	34.8 µM	Active	Active	2.58 µM	O=C(CCCCCSc1nc2c([nH]c3ccccc32)c(=O)[nH]1)NO	65.7%							

Structure (SMILES)	IC50 [1]	IC50 [2]	IC50 [3]	inhibition (active/inactive call) [5]	topoisomerase II inhibition (active/inactive) [6]	IC50 [11]	Activity [4]	viability at 10 µM [7]	Activity [8]	Activity [9]	Activity [10]	Activity [12]	inhibition at 1 µM [13]	inhibition at 2.5 µM [14]
CC[C@@]1(O)C(=O)OCc2c1cc1n(c2=O)Cc2cc3ccccc3nc2-1 [CAMPTOTHECIN]	17.8 µM	18.6 µM	18.2 µM				37.51%							
